In brackets after ≈: the same amount, converted by molar mass. Read-outs that look alike come from different tables or passages of the source.
Legend:
[1] = target: CnFTase (C. neoformans farnesyl transferase, α/β heterodimer) (Cryptococcus neoformans, UniProt J9VSJ6+T2BPA1); assay: CnFTase activity assay: farnesylation of a dansylated (fluorescent) peptide, inhibitor concentration giving half-maximal enzyme rates at 1 μM FPP (1μMIC50); details: read-out: CnFTase IC50 (1μMIC50), condition A: 20 nM CnFTase, dansyl-GCVVM 0.62 μM, Tris-HCl pH 7.5, ZnCl2 12.5 μM, 2.5% DMSO, room temperature, triplicate
Procedure: (§1) CnFTase activity assay. […] Final CnFTase concentrations (from 5× or 10× stocks in 20 mM Tris-HCl pH7.5, 20 mM NaCl, 5 μM ZnCl2, 1 mM TCEP, 1 mg/mL BSA): A, 20 nM; B: 4.4, 6.7, 10 nM triplets. […] For experiments that included phosphate, pH 7.5 stock was added to the desired final concentration. […] Data for determining ^1μMIC50 values (condition A) was collected in triplicate. Initial rates, vo, were extracted by fitting a straight line to the initial to tmax seconds of the reaction progress curves, where tmax values were selected by inspection and entered into curator tables for automated analysis. 1μMIC50 were determined by fitting a single-site Langmuir ligand-binding isotherm to the dependence of vo on inhibitor concentration (2, see below). All other experiments (condition B) all other experiments (condition B) used three different CnFTase concentrations, collecting progress curves as a function of FPP, inhibitor, and phosphate concentrations. The resulting triplet of progress curves was used to extract vo values automatically by minimizing
If x is an inhibitor concentration, then IC50=Ka^−1. […] In general, baseline signals, σ, (α or β) can be constant, or linear functions of ligand concentration x

[2] = tested on: C. neoformans FTase (CnFTase); assay: CnFTase activity assay, farnesylation of a fluorescent (dansylated) peptide, 1μMIC50; assay type: biochemical, Cryptococcus neoformans; details: for change of affinity relative to the comparator analogue (cf.): pairwise comparison of analogues differing in one R group
Procedure: The library of 23 compounds contained leads with 60- to 150-fold enhanced ^1μMIC50 values.
CnFTase activity assay. The farnesyl transferase activity was measured by measuring the time dependence of the fluorescence emission intensity increase due to farnesylation of a dansylated peptide (Cassidy, P. B, et al., Methods Enzymol, 1995, 250, 30-43). Measurements were taken at room temperature in a 96-well black polystyrene, half area, flat bottom, non-binding surface plate using a SpectraMax M5e plate reader (excitation wavelength, 340 nm; emission wavelength 525 nm; emission high-pass filter, 455 nm). […] Final CnFTase concentrations (from 5× or 10× stocks in 20 mM Tris-HCl pH7.5, 20 mM NaCl, 5 μM ZnCl2, 1 mM TCEP, 1 mg/mL BSA): A, 20 nM; B: 4.4, 6.7, 10 nM triplets. […] For experiments that included phosphate, pH 7.5 stock was added to the desired final concentration. Data was analyzed using Python scripts for the Biomolecular Computing (BMC) package, included in the Dryad electronic repository. Data for determining ^1μMIC50 values (condition A) was collected in triplicate. Initial rates, vo, were extracted by fitting a straight line to the initial to tmax seconds of the reaction progress curves, where tmax values were selected by inspection and entered into curator tables for automated analysis. 1μMIC50 were determined by fitting a single-site Langmuir ligand-binding isotherm to the dependence of vo on inhibitor concentration (2, see below). All other experiments (condition B) […] used three different CnFTase concentrations, collecting progress curves as a function of FPP, inhibitor, and phosphate concentrations. The resulting triplet of progress curves was used to extract vo values automatically by minimizing
Single-site binding isotherms. Signals, S, resulting from a binding reaction were fit to
where α and β are the baselines associated with the apo-protein and its ligand complex, respectively, and y fractional occupancy of the binding site
If x is an inhibitor concentration, then IC50=Ka^−1. For Michaelis-Menten analysis 2 is reduced to a standard form (Bahar, I.; Jernigan, R. L.; Dill, K. A. Protein Actions, principles & modeling. Garland Science: 2017) with S=vo (initial rates), α=0, β=Vmax (maximal velocity), and KM=Ka^−1 (substrate dissociation constant). In general, baseline signals, σ, (α or β) can be constant, or linear functions of ligand concentration x

[3] = tested on: C. neoformans; assay: Minimum inhibitory concentration (MIC): disc diffusion and broth microdilution; details: for MIC: Cryptococcus neoformans
Procedure: Antifungal activity was determined by measuring minimum inhibitory concentrations (MIC) of C. neoformans by two methods: a solid medium disc diffusion assay and broth microdilution assay.
Disc diffusion assay. Overnight cultures of C. neoformans (about 18 hours) were normalized to OD600 0.6, diluted 1/10, and 200 μL of each sample were spread onto either a YPD or YPGal (yeast extract-peptone medium with 3% galactose) plate using sterile glass beads. After drying, 10 μL of compound or solvent control (DMSO) was added to sterile 6 mm filter discs on each plate. Plates were incubated for 48 hours at 37° C.
Minimum inhibitory concentration (MIC) assays. C. neoformans: Overnight cultures (˜18 h) of C. neoformans strains incubated in YPD medium were diluted to 500 cells/ml in RPMI medium buffered with MOPS. Cells were aliquoted (200 μL/well) in black-wall, clear-bottom 96-wells plates (Greiner). Compound stock solutions in DMSO ranged from 9 μM to 20 mM, and added to 200 μL cell suspension aliquoted in 96-well plates. Final aqueous concentrations ranged from 200 μM to 0.09 μM, limiting DMSO to 1%. After 48-hr incubation at 37° C. or 30° C. for 48 h, 10% AlamarBlue (BioRad) was added. The end-point fluorescence intensity of reduced AlamarBlue was measured using a fluorescence plate reader (FLUORStar Optima plate reader) at the time point the indicator turned from blue to pink in healthy control cells.^51 Assays were performed in duplicate.

[4] = target: CnFTase (Cryptococcus neoformans, UniProt J9VSJ6+T2BPA1); assay: CnFTase steady-state kinetics fit to competitive/uncompetitive/mixed inhibition models
Procedure: as §1
where χk^2 is the squared difference of the calculated and observed emissions in the k^th iteration of the minimizer, fi the initial fraction (constrained in the interval [0.5,1]) of the T time points of the progress curve, Di the dilution factor of the i^th progress curve (0.44:0.66:1 for condition B), S0ik the fluorescence emission intensity of the i^th progress curve at t=0 at the k^th (this value is refined individually using a one-dimensional golden section search^52 with fi and v0 values of the k−1 iteration), and ^obsSji, the observed intensity of the i^th progress curve at the j^th time point. The target function 1 is minimized using conjugate gradients with vo and fi as the degrees of freedom. The resulting rates were then fit to binding polynomials describing the inhibition mechanism (5-13, see below).
Binding polynomials for inhibition models. The initial steady-state rates of a reaction involving a single-substrate x, and inhibitor y are given by
Three binding polynomials were used:
where Ka, KC, and KU are the affinities of the enzyme for substrate, competitive inhibitor, and uncompetitive inhibitor, respectively.
Solvers for non-ideal conditions. In non-ideal conditions 9 is false, and the total protein concentration needs to be included as a degree of freedom, requiring the roots of the following multivariate polynomial to be found (see below for derivation):

[5] = tested on: C. neoformans; details: C. neoformans; Bongomin et al. 2018; cited from earlier work

Sequence of CnFTase (C. neoformans farnesyl transferase, α/β heterodimer) (J9VSJ6 entry or part of it): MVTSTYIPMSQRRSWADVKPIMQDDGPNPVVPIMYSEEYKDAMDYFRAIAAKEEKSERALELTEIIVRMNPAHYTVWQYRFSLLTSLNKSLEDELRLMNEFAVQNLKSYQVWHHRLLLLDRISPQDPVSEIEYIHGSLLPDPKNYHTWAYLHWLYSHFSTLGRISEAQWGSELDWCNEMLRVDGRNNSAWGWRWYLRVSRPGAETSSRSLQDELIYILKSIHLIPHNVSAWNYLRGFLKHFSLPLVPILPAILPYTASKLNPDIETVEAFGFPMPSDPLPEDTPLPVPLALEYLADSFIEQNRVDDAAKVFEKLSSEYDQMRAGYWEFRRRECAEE
Sequence of CnFTase (C. neoformans farnesyl transferase, α/β heterodimer) (T2BPA1 entry or part of it): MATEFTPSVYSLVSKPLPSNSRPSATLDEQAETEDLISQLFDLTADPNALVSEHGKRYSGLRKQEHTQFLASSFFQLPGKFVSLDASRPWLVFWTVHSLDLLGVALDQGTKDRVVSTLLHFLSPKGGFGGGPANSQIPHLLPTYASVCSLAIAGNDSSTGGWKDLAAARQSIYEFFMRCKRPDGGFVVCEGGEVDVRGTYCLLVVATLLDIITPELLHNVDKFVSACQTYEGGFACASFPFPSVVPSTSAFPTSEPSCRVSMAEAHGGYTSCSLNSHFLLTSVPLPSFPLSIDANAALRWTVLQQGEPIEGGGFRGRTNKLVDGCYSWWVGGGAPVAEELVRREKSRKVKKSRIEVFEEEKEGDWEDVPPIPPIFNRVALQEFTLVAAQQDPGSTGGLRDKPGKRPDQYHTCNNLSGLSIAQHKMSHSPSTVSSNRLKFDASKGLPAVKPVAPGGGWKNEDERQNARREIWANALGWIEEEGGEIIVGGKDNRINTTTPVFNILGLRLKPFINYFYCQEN
Sequence of CnFTase (J9VSJ6 entry or part of it): as the sequence (J9VSJ6 entry or part of it) above
Sequence of CnFTase (T2BPA1 entry or part of it): as the sequence (T2BPA1 entry or part of it) above

SMILES | IC50 [1] | change of affinity relative to the comparator analogue (cf.) [2] | other results
N#Cc1cc(Cn2cncc2CN2CCN(c3cccc(OC(F)(F)F)c3)C(=O)C2)ccc1Oc1ccccc1 [Compound 2v] | 320 ± 100 nM | – | –
CCCC[C@H]1CN(c2cccc(OC(F)(F)F)c2)C(=O)CN1Cc1cncn1Cc1ccc(F)c(C#N)c1 [Compound 2p, (S)-5-((5-((2-Butyl-5-oxo-4-(3-(trifluoromethoxy)phenyl)piperazin-1-yl)methyl)-1H-imidazol-1-yl)methyl)-2-fluorobenzonitrile] | 180 ± 100 nM | – | –
CCCC[C@H]1CN(c2cccc(Cl)c2)C(=O)CN1Cc1cncn1Cc1ccc(C#N)cc1 [Compound 2a, (S)-4-((5-((2-Butyl-4-(3-chlorophenyl)-5-oxopiperazin-1-yl)methyl)-1H-imidazol-1-yl)methyl)benzonitrile] | 100 ± 10 nM | – | –
CCCC[C@H]1CN(c2cccc(OC(F)(F)F)c2)C(=O)CN1Cc1cncn1Cc1cccc(C#N)c1 [Compound 2o, (S)-3-((5-((2-Butyl-5-oxo-4-(3-(trifluoromethoxy)-phenyl)piperazin-1-yl)methyl)-1H-imidazol-1-yl)methyl)benzonitrile] | 740 ± 310 nM | – | –
N#Cc1ccc(Cn2cncc2CN2CCN(c3cccc(OC(F)(F)F)c3)C(=O)C2)cc1F [Compound 2s, 2-Fluoro-4-((5-((3-Oxo-4-(3-(trifluoromethoxy)phenyl)piperazin-1-yl)methyl)-1H-imidazol-1-yl)methyl)benzonitrile] | 120 ± 40 nM | 20 fold | –
CCCCC[C@H]1CN(c2cccc(OC(F)(F)F)c2)C(=O)CN1Cc1cncn1Cc1ccc(Br)cc1 [Compound 21, (S)-4-((1-(4-Bromobenzyl)-1H-imidazol-5-yl)methyl)-5-pentyl-1-(3-(trifluoromethoxy)phenyl)piperazin-2-one] | – | showed little improvement | MIC [3]: 3 to 6 µM (≈ 1.74 to 3.48 µg/mL)
CCCC[C@H]1CN(c2cccc(Cl)c2)C(=O)CN1Cc1cncn1Cc1ccc(Cl)cc1 [Compound 2c, (S)-5-Butyl-4-((1-(4-chlorobenzyl)-1H-imidazol-5-yl)methyl)-1-(3-chlorophenyl)piperazin-2-one] | 1600 ± 800 nM | – | –
CCCC[C@H]1CN(c2cccc(OC(F)(F)F)c2)C(=O)CN1Cc1cncn1Cc1ccc(Oc2ccccc2)c(C#N)c1 [Compound 2t, (S)-5-((5-((2-Butyl-5-oxo-4-(3-(trifluoromethoxy)phenyl)-piperazin-1-yl)methyl)-1H-imidazol-1-yl)methyl)-2-phenoxybenzonitrile] | 210 ± 100 nM | – | –
CCCC[C@H]1CN(c2cccc(C)c2C)C(=O)CN1Cc1cncn1Cc1ccc(C#N)cc1 [Compound 2n, (S)-4-((5-((2-butyl-4-(2,3-dimethylphenyl)-5-oxopiperazin-1-yl)methyl)-1H-imidazol-1-yl)methyl)benzonitrile] | 2200 ± 1300 nM | had little effect or were slightly deleterious | –
CCCCC[C@H]1CN(c2cccc(OC(F)(F)F)c2)C(=O)CN1Cc1cncn1Cc1ccc(Br)cc1 [Compound 2l, (S)-4-((1-(4-Bromobenzyl)-1H-imidazol-5-yl)methyl)-5-pentyl-1-(3-(trifluoromethoxy)phenyl)piperazin-2-one] | 160 ± 20 nM | – | –
CCCC[C@H]1CN(c2cccc(OC(F)(F)F)c2)C(=O)CN1Cc1cncn1Cc1ccccc1 [Compound 2i, (S)-4-((1-Benzyl-1H-imidazol-5-yl)methyl)-5-butyl-1-(3-(trifluoromethoxy)phenyl)piperazin-2-one] | 1900 ± 1700 nM | – | –
N#Cc1ccc(Cn2cncc2CN2CCN(c3cccc(OC(F)(F)F)c3)C(=O)C2)cc1 [Compound 2j, (S)-4-((5-((3-Oxo-4-(3-(trifluoromethoxy)phenyl)piperazin-1-yl)methyl)-1H-imidazol-1-yl)methyl)benzonitrile] | 2700 ± 1100 nM | had little effect or were slightly deleterious | –
N#Cc1ccc(Cn2cncc2CN2CCN(c3cccc(OC(F)(F)F)c3)C(=O)C2)cc1Oc1ccccc1 [Compound 2w, 4-((5-((3-Oxo-4-(3-(trifluoromethoxy)phenyl)piperazin-1-yl)methyl)-1H-imidazol-1-yl)methyl)-2-phenoxybenzonitrile] | 2600 ± 1400 nM | did not alter affinities | –
CCCC[C@H]1CN(c2cccc(OC(F)(F)F)c2)C(=O)CN1Cc1cncn1Cc1ccc(C#N)c(F)c1 [Compound 2q, (S)-4-((5-((2-Butyl-5-oxo-4-(3-(trifluoromethoxy)-phenyl)piperazin-1-yl)methyl)-1H-imidazol-1-yl)methyl)-2-fluorobenzonitrile] | – | 9 fold | Ki [4]: 4 nM; improvement of uncompetitive binding affinity in the H state ([4]; H state vs L state): ~10%; inhibition mode ([4]; with respect to FPP): purely uncompetitive inhibitor; improvement of 1μMIC50 over L-778,123 ([2]; 1 μM FPP, relative to L-778,123): 150 fold; antifungal activity ([3]; C. neoformans): barely exhibited antifungal activity
CCCC[C@H]1CN(c2cccc(OC(F)(F)F)c2)C(=O)CN1Cc1cncn1Cc1ccc(Cl)cc1 [Compound 2e] | 260 ± 130 nM | – | MIC [3]: 3 to 6 µM (≈ 1.56 to 3.13 µg/mL)
CCCC[C@H]1CN(c2cccc(OC(F)(F)F)c2)C(=O)CN1Cc1cncn1Cc1ccc(F)cc1 [Compound 2g, (S)-5-butyl-4-((1-(4-fluorobenzyl)-1H-imidazol-5-yl)methyl)-1-(3-(trifluoromethoxy)phenyl)piperazin-2-one] | 710 ± 240 nM | – | –
CCCC[C@H]1CN(c2cccc(Cl)c2)C(=O)CN1Cc1cncn1Cc1ccc(Br)cc1 [Compound 2b, (S)-4-((1-(4-Bromobenzyl)-1H-imidazol-5-yl)methyl)-5-butyl-1-(3-chlorophenyl)piperazin-2-one] | 1100 ± 780 nM | – | –
CCCC[C@H]1CN(c2cccc(OC(F)(F)F)c2)C(=O)CN1Cc1cncn1Cc1ccc(C#N)c(Oc2ccccc2)c1 [Compound 2u, (S)-4-((5-((2-butyl-5-oxo-4-(3-(trifluoromethoxy)phenyl)-piperazin-1-yl)methyl)-1H-imidazol-1-yl)methyl)-2-phenoxybenzonitrile] | 150 ± 60 nM | did not alter affinities | –
CCCC[C@H]1CN(c2ccccc2)C(=O)CN1Cc1cncn1Cc1ccc(Br)cc1 [Compound 2m, (S)-4-((1-(4-Bromobenzyl)-1H-imidazol-5-yl)methyl)-5-butyl-1-phenylpiperazin-2-one] | 920 ± 510 nM | – | –
CCCC[C@H]1CN(c2cccc(OC(F)(F)F)c2)C(=O)CN1Cc1cncn1Cc1ccc(C(F)(F)F)cc1 [Compound 2h, (S)-5-Butyl-1-(3-(trifluoromethoxy)phenyl)-4-((1-(4-(trifluoromethyl)benzyl)-1H-imidazol-5-yl)methyl)piperazin-2-one] | 280 ± 150 nM | – | MIC [3]: 3 to 6 µM (≈ 1.66 to 3.33 µg/mL)
CCC[C@H]1CN(c2cccc(OC(F)(F)F)c2)C(=O)CN1Cc1cncn1Cc1ccc(Br)cc1 [Compound 2k, (S)-4-((1-(4-Bromobenzyl)-1H-imidazol-5-yl)methyl)-5-propyl-1-(3-(trifluoromethoxy)phenyl) piperazin-2-one] | 1100 ± 510 nM | reduced affinity | MIC [3]: 3 to 6 µM (≈ 1.65 to 3.31 µg/mL)
OC(Cn1cncn1)(Cn1cncn1)c1ccc(F)cc1F [fluconazole] | – | – | MIC [5]: ≥ 8 µg/mL
N#Cc1cc(Cn2cncc2CN2CCN(c3cccc(OC(F)(F)F)c3)C(=O)C2)ccc1F [Compound 2r, 2-Fluoro-5-((5-((3-oxo-4-(3-(trifluoromethoxy)phenyl)piperazin-1-yl)methyl)-1H-imidazol-1-yl)methyl)benzonitrile] | 550 ± 30 nM | – | –
CCCC[C@H]1CN(c2cccc(OC(F)(F)F)c2)C(=O)CN1Cc1cncn1Cc1ccc(C#N)cc1 [Compound 2d, (S)-4-((5-((2-butyl-5-oxo-4-(3-(trifluoromethoxy)-phenyl)piperazin-1-yl)methyl)-1H-imidazol-1-yl)methyl)benzonitrile] | 340 ± 220 nM | – | –

Source: patent US20250114350A1, “INHIBITORS OF […] AS ANTIFUNGAL AGENTS” (Regents of the University of Minnesota, priority 2023, published 2025)
